Measurements as given in the OligoGym collection.
Values joined by “and” are separate entries in the source; they are usually repeats but may differ in a detail not shown here. Equal values may be shown once. HELM strings list units from the 5' end as sugar, base in round brackets, then linkage (d deoxyribose, r ribose, m 2'-O-methyl, p phosphodiester). Strings are as the collection lists them, not checked against the first reports. ss, as = sense and antisense strand; [lna] = locked nucleic acid (LNA); [hna] = hexitol nucleic acid; [s4r] = 4'-thioribose; [fl2r] = 2'-fluoro

Conditions: siRNA
Also: test system not given here.

First: RNA1{r(C)p.r(G)p.r(G)p.r(A)p.r(U)p.r(C)p.m(U)p.m(A)p.m(C)p.r(A)p.r(C)p.r(C)p.r(U)p.r(U)p.m(C)p.r(A)p.r(A)p.r(G)p.r(A)p.r(T)p.r(T)}|RNA2{r(U)p.r(C)p.r(U)p.m(U)p.r(G)p.r(A)p.r(A)p.r(G)p.r(G)p.m(U)p.r(G)p.m(U)p.r(A)p.r(G)p.r(A)p.r(U)p.r(C)p.r(C)p.r(G)p.r(T)p.r(T)}$$$RNA1{StrandType:ss}|RNA2{StrandType:as}$
Second: RNA1{r(C)p.r(C)p.r(U)p.r(C)p.r(C)p.r(C)p.m(C)p.r(A)p.r(U)p.r(C)p.r(C)p.r(C)p.r(C)p.r(U)p.r(U)p.r(U)p.m(U)p.r(A)p.r(A)p.r(T)p.r(T)}|RNA2{r(U)p.r(U)p.m(A)p.r(A)p.r(A)p.r(A)p.r(G)p.r(G)p.r(G)p.r(G)p.r(A)p.m(U)p.r(G)p.r(G)p.r(G)p.r(G)p.r(A)p.r(G)p.r(G)p.r(T)p.r(T)}$$$RNA1{StrandType:ss}|RNA2{StrandType:as}$
The target mRNA knockdown of the first is lower: 40% for the first, 80% for the second.

Compared with “RNA1{r(A)p.r(G)p.r(C)p.r(G)p.r(G)p.r(G)p.r(G)p.m(U)p.r(A)p.m(U)p.r(G)p.r(A)p.r(A)p.r(G)p.m(A)p.r(G)p.r(C)p.r(U)p.r(U)p.r(T)p.r(T)}|RNA2{r(A)p.r(A)p.r(G)p.r(C)p.r(U)p.r(C)p.r(U)p.r(U)p.m(C)p.r(A)p.m(U)p.r(A)p.r(C)p.r(C)p.r(C)p.r(C)p.r(G)p.r(C)p.r(U)p.r(T)p.r(T)}$$$RNA1{StrandType:ss}|RNA2{StrandType:as}$”, “RNA1{[s4r](C)p.[s4r](G)p.[s4r](U)p.[s4r](A)p.[s4r](C)p.[s4r](G)p.r(C)p.r(G)p.r(G)p.r(A)p.r(A)p.r(U)p.r(A)p.[s4r](C)p.[s4r](U)p.[s4r](U)p.[s4r](C)p.[s4r](G)p.[s4r](A)p.r(T)p.r(T)}|RNA2{r(G)p.r(C)p.r(G)p.r(A)p.r(A)p.r(G)p.r(U)p.r(A)p.r(U)p.r(U)p.r(C)p.r(C)p.r(G)p.r(C)p.r(G)p.r(U)p.r(A)p.[s4r](C)p.[s4r](G)p.r(T)p.r(T)}$$$RNA1{StrandType:ss}|RNA2{StrandType:as}$” is lower in target mRNA knockdown: 85% for the first, 74.2% for the second.

Compared with “RNA1{r(A)p.r(A)p.r(C)p.r(C)p.r(C)p.r(A)p.r(C)p.r(C)p.r(A)p.r(C)p.r(A)p.r(G)p.r(C)p.r(U)p.r(A)p.r(G)p.r(A)p.r(A)p.r(C)p.r(U)p.r(U)}|RNA2{r(A)p.r(A)p.m(G)p.m(U)p.m(U)p.r(C)p.m(U)p.r(A)p.m(G)p.r(C)p.m(U)p.m(G)p.m(U)p.m(G)p.m(G)p.m(U)p.m(G)p.m(G)p.r(G)p.m(U)p.m(U)}$$$RNA1{StrandType:ss}|RNA2{StrandType:as}$”, “RNA1{m(A)p.r(A)p.m(A)p.r(C)p.m(C)p.r(U)p.m(C)p.r(A)p.m(G)p.r(C)p.m(C)p.r(C)p.m(U)p.r(A)p.m(A)p.r(C)p.m(G)p.r(G)p.m(U)p.r(T)p.r(T)}|RNA2{r(A)p.m(C)p.m(C)p.r(G)p.r(U)p.r(U)p.r(A)p.r(G)p.r(G)p.r(G)p.m(C)p.r(U)p.r(G)p.r(A)p.r(G)p.r(G)p.r(U)p.r(U)p.r(U)p.r(T)p.r(T)}$$$RNA1{StrandType:ss}|RNA2{StrandType:as}$” is higher in target mRNA knockdown: 15% for the first, 28% for the second.

Compared with “RNA1{m(A)p.r(G)p.m(C)p.r(C)p.m(U)p.r(C)p.m(C)p.r(A)p.m(A)p.r(A)p.m(C)p.r(U)p.m(C)p.r(C)p.m(U)p.r(A)p.m(G)p.r(C)p.m(U)p.r(T)p.r(T)}|RNA2{r(A)p.r(G)p.m(C)p.r(U)p.r(A)p.r(G)p.r(G)p.r(A)p.r(G)p.r(U)p.r(U)p.r(U)p.r(G)p.r(G)p.r(A)p.r(G)p.r(G)p.m(C)p.r(U)p.r(T)p.r(T)}$$$RNA1{StrandType:ss}|RNA2{StrandType:as}$”, “RNA1{r(A)p.r(C)p.r(C)p.r(U)p.m(U)p.r(A)p.r(A)p.r(G)p.r(G)p.r(A)p.r(C)p.m(C)p.r(A)p.r(C)p.r(C)p.r(G)p.r(G)p.r(A)p.r(U)p.r(T)p.r(T)}|RNA2{r(A)p.r(U)p.r(C)p.r(C)p.r(G)p.r(G)p.m(U)p.r(G)p.r(G)p.r(U)p.r(C)p.r(C)p.r(U)p.m(U)p.r(A)p.r(A)p.r(G)p.r(G)p.r(U)p.r(T)p.r(T)}$$$RNA1{StrandType:ss}|RNA2{StrandType:as}$” is higher in target mRNA knockdown: 47% for the first, 72% for the second.

Compared with “RNA1{r(C)p.r(U)p.r(U)p.r(A)p.r(C)p.r(G)p.r(C)p.r(U)p.r(G)p.r(A)p.r(G)p.r(U)p.r(A)p.r(C)p.r(U)p.r(U)p.r(C)p.r(G)p.r(A)p.r(T)p.r(T)}|RNA2{r(T)p.r(C)p.r(G)p.r(A)p.r(A)p.r(G)p.r(U)p.r(A)p.r(C)p.r(U)p.r(C)p.r(A)p.r(G)p.r(C)p.r(G)p.r(U)p.r(A)p.r(A)p.[lna](G)p.[lna](T)p.[lna](T)}$$$RNA1{StrandType:ss}|RNA2{StrandType:as}$”, “RNA1{r(G)p.r(A)p.r(C)p.r(G)p.[hna](U)p.r(A)p.r(A)p.[hna](A)p.r(C)p.r(G)p.[hna](G)p.r(C)p.r(C)p.[hna](A)p.r(C)p.r(A)p.r(A)p.r(G)p.[hna](U)p.[hna](U)p.d(T)}|RNA2{[fl2r](A)p.m(C)p.[fl2r](U)p.m(U)p.[fl2r](G)p.m(U)p.[fl2r](G)p.m(G)p.[fl2r](C)p.m(C)p.[fl2r](G)p.m(U)p.[fl2r](U)p.m(U)p.[fl2r](A)p.m(C)p.[fl2r](G)p.m(U)p.[fl2r](C)p.m(G)p.[fl2r](C)}$$$RNA1{StrandType:ss}|RNA2{StrandType:as}$” is lower in target mRNA knockdown: 92% for the first, 23.3% for the second.

Compared with “RNA1{r(C)p.[fl2r](C)p.r(A)p.r(G)p.r(C)p.r(G)p.r(A)p.r(G)p.r(C)p.r(C)p.[fl2r](C)p.r(A)p.r(A)p.r(A)p.r(A)p.r(G)p.r(A)p.r(A)p.r(A)p.r(T)p.r(T)}|RNA2{r(U)p.r(U)p.r(U)p.r(C)p.r(U)p.r(U)p.r(U)p.r(U)p.r(G)p.r(G)p.r(G)p.r(C)p.r(U)p.r(C)p.r(G)p.r(C)p.r(U)p.r(G)p.r(G)p.r(T)p.r(T)}$$$RNA1{StrandType:ss}|RNA2{StrandType:as}$”, “RNA1{r(C)p.r(G)p.r(A)p.r(A)p.r(A)p.r(G)p.r(U)p.r(G)p.r(U)p.r(A)p.r(U)p.r(C)p.r(C)p.r(G)p.r(A)p.r(A)p.r(G)p.r(A)p.r(C)p.r(T)p.r(T)}|RNA2{r(G)p.r(U)p.r(C)p.r(U)p.r(U)p.r(C)p.r(G)p.r(G)p.r(A)p.[fl2r](U)p.r(A)p.r(C)p.r(A)p.r(C)p.r(U)p.r(U)p.r(U)p.r(C)p.r(G)p.r(T)p.r(T)}$$$RNA1{StrandType:ss}|RNA2{StrandType:as}$” is lower in target mRNA knockdown: 85% for the first, 69% for the second.

“RNA1{m(G)p.r(A)p.m(C)p.r(A)p.m(A)p.r(G)p.m(G)p.r(G)p.m(A)p.r(A)p.m(G)p.r(G)p.m(U)p.r(U)p.m(A)p.r(G)p.m(C)p.r(C)p.m(U)p.r(T)p.r(T)}|RNA2{r(A)p.r(G)p.r(G)p.r(C)p.r(U)p.r(A)p.r(A)p.r(C)p.r(C)p.r(U)p.r(U)p.r(C)p.r(C)p.r(C)p.r(U)p.r(U)p.r(G)p.r(U)p.r(C)p.r(T)p.r(T)}$$$RNA1{StrandType:ss}|RNA2{StrandType:as}$” gave a target mRNA knockdown of 34%.

In the case of “RNA1{r(G)p.r(G)p.r(U)p.r(C)p.r(A)p.r(U)p.r(C)p.r(C)p.r(A)p.r(U)p.r(G)p.r(A)p.r(C)p.r(A)p.r(A)p.r(C)p.r(U)p.r(U)p.r(U)p.d(T)p.d(T)}|RNA2{r(A)p.r(A)p.r(A)p.r(G)p.r(U)p.r(U)p.r(G)p.r(U)p.r(C)p.r(A)p.r(U)p.r(G)p.r(G)p.r(A)p.r(U)p.r(G)p.r(A)p.r(C)p.r(C)p.d(T)p.d(T)}$$$RNA1{StrandType:ss}|RNA2{StrandType:as}$”, the target mRNA knockdown is reported as 80% and 94%.
